Assay results: patent publication US6552071B2, “Methods for treating cell death diseases and inflammation” (President and Fellows of Harvard College, priority 1999, dated 2003)

Legend:
Format in all cases: cell-based
caspase-11 = experiment: LPS-induced caspase-11 expression in BalbC/3T3 cells, Western blot
Description: FIG. 27 is a graph of the inhibition of caspase-11 induction by synthetic wedelolactone. BalbC/3T3 cells were treated with 0, 30 μM, 40 μM, 60μM, 80 μM or 100 μM of wedelolactone for 1 hour and LPS for an additional 6 hours. The induction of caspase-11 was measured by Western blot analysis and quantification.
To identify modulators of caspase-11 expression or activity, a tissue culture model of caspase-11 induction was generated. In this model, BalbC/3T3 cells normally express undetectable levels of caspase-11 biological activity, as measured by Western blot analysis. […] A caspase-11 modulatory compound may be administered to the cells prior to administration of LPS, and then caspase-11 biological activity may be measured at a specific time after addition of LPS to the culture media of the cells. A caspase-11 modulatory compound that suppresses the LPS-induced biological activity of caspase-11 is considered to be a compound that modulates not only caspase-11 expression, but also cell death or inflammation.
BalbC/3T3 cells were next preincubated with an ethanol extract of the plant Eclipta prostrata L. (454 g of Eclipta prostrata L. was extracted into 8 ml of ethanol; 5 μl of extract/ml of tissue culture media was applied to the cell culture) for 6 hours, followed by treatment with LPS for 6 hours, as described above. The level of caspase-11 protein expression was then measured.

NF-κB = experiment: NF-κB-luciferase reporter in LPS-treated BalbC/3T3 cells
Description: FIG. 5A is a graph of the effect of the active Eclipta prostrata L. fraction on induction of NF-κB and caspase-11. BalbC/3T3 cells were transfected with an NF-κB luciferase report construct and treated with the ethylacetate fraction of Eclipta prostrata L. ethylacetate extract (EA) or 11,12-dihydroxy coumestan (10 mg/ml) for 1 hour and then treated with 2 μg/ml LPS for 9 hours. Luciferase activity was then determined.
FIG. 28 is a graph of the inhibition of NF-κB activation by synthetic wedelolactone. BalbC/3T3 cells were transfected with NF-κB luciferase construct. Twelve hours later, cells were treated with 0, 20 μM, 40 μM, 60 μM, or 100 μM of wedelolactone for 1 hour and then 2 μg/ml LPS for additional 6 hours. Luciferase activity was then quantified.
Since caspase-11 is induced through the NF-κB pathway, wedelolactone (FIG. 3) may inhibit the activity of NF-κB. To examine this possibility, BalbC/3T3 cells were transfected with an NF-κB-luciferase reporter plasmid (containing an NF-κB response element).
The ability of synthetic wedelolactone to inhibit the activation of NF-κB induced by LPS was also assessed. BalbC/3T3 cells were transfected with a plasmid encoding an NF-κB-luciferase reporter protein in the presence of varying concentrations of wedelolactone. […] These experiments provided the final confirmation that wedelolactone is an inhibitor of NF-κB activation and caspase-11 induction. Thus, wedelolactone can be used to treat cell death diseases and inflammation.

NF-κB p105 mRNA = experiment: Atlas DNA array mRNA expression in LPS-treated BalbC/3T3 cells; conditions: 100 μM 1 h, then LPS 6 h, versus LPS only
Description: (§1) One hundred μM wedelolactone reduced the expression of NF-κB p105 mRNA in LPS-treated BalbC/3T3 cells at the ratio of 1 to 8.

STAT1 = experiment: as above; conditions: 100 μM 1 h, then LPS 6 h
Description: as §1

STAT3 = experiment: as above; conditions: 100 μM 1 h, then LPS 6 h
Description: as §1

Row | Structure (SMILES) | Inhibition of caspase-11 expression (caspase-11; general statement in Example 3) | Inhibition of LPS induction of NF-κB luciferase activity (FIG. 5A) (NF-κB; 1 hour pre-treatment, 2 μg/ml LPS 9 hours, coumestan 10 mg/ml) | Suppression of LPS-induced caspase-11 expression (caspase-11; 70 μg/ml, 6 hour pre-treatment, then LPS) | IC50 (caspase-11; BALB/c3T3, BalbC/3T3 cells, wedelolactone 1 hour, LPS additional 6 hours, read-out: IC50, inhibition of induction of caspase-11 by LPS) | Inhibition of LPS-induced activation of the NF-κB promoter (FIG. 28) (NF-κB; 0-100 μM 1 hour, 2 μg/ml LPS 6 hours, same concentration range as caspase-11 inhibition) | Inhibition of NF-κB transcriptional activity induced by LPS (NF-κB; 60 and 100 μM) | Reduction of NF-κB p105 mRNA expression, ratio (NF-κB p105 mRNA) | STAT1 expression level, % of control cells treated with LPS only (STAT1) | STAT3 expression level, % of control cells treated with LPS only (STAT3)
1 | O=c1oc2ccccc2c2oc3cc(O)c(O)cc3c12 [11,12-dihydroxy coumestan, reference compound] | does not inhibit caspase-11 expression | did not inhibit NF-κB induction | – | – | – | – | – | – | –
2 | COc1cc(O)c2c(c1)oc(=O)c1c3cc(O)c(O)cc3oc21 [wedelolactone] | – | – | suppressed caspase-11 expression | ~50 µM | inhibited the activation of the NF-κB promoter | inhibited the NF-κB transcriptional activity | 1 to 8 | 4% | 30%
